We go through 22 compounds from ChEMBL document CHEMBL1121629, “1-(Aminoalkyl)-6-aryl-4-H-s-triazolo[4,3-a][1,4]benzodiazepines with antianxiety and antidepressant activity” (1980).

Holding throughout (type): functional
The species named for test [1] is Mus musculus. Kind of test: Tested for antagonism of oxotremorine hypothermia (OX) in mice.
The species entered for test [2] is Mus musculus. The test is described as follows: Prolongation of hypoxic survival time (HS) in mice.
The species named for test [3] is Mus musculus. Kind of test: Tested for antagonism of pentylenetetrazole-induced clonic convulsions (P) in mice.
Test [4] is filed under the species Mus musculus. Kind of test: Tested for antagonism of bicuculline-induced tonic-extensor convulsions (B) in mice.
The species entered for test [5] is Mus musculus. Kind of test: Tested for stereotyped gnawing and licking behavior of mice pretreated with apomorphine (AG).
The species named for test [6] is Mus musculus. Kind of test: Tested for potentiation of gamma-butyrolactone induced sleep (gamma-B) in mice.
For test [7], the species on record is Mus musculus. The test is described as follows: Tested for potentiation of yohimbine toxicity in aggregated mice(Y).
Test [8] is filed under the species Mus musculus. The test is described as follows: Tested for antagonism of nicotine-induced tonic extensor convulsions (TE) in mice.

In general, ED50 refers to the midpoint of the dose-response relation.

The structures appear in SMILES notation. Some results are limits rather than exact numbers.

Turning to `CC(N)Cc1nnc2n1-c1ccccc1C(c1ccccc1Cl)=NC2` (centres undefined), the 50% effective dose (ED50) in test [1] was above 50 mg/kg; in test [2], 10 mg/kg; in test [3] it was above 50 mg/kg; in test [4], above 50 mg/kg; in test [5], above 50 mg/kg; in test [6] it was above 50 mg/kg. Further, the ED50 in test [7] came out at 20 mg/kg.
`C#CCN(C)Cc1nnc2n1-c1ccccc1C(c1ccccc1Cl)=NC2`: the ED50 in test [1] is above 50 mg/kg; in test [2] it was 3 mg/kg; in test [3], 2 mg/kg; in test [4], 2 mg/kg; in test [5], above 50 mg/kg; in test [6], 8 mg/kg. For the same compound, the ED50 in test [7] is above 50 mg/kg.
In the case of `NCCc1nnc2n1-c1ccccc1C(c1ccccc1)=NC2`, the ED50 in test [1] was 40 mg/kg; in test [2], above 50 mg/kg; in test [3], above 50 mg/kg; in test [4], above 50 mg/kg; in test [5], 30 mg/kg; in test [6], above 50 mg/kg. Further, the 50% effective dose (ED50) in test [7] was 30 mg/kg.
Take `CN(C)CCc1nnc2n1-c1ccccc1C(c1ccccc1)=NC2`: the ED50 is 10 mg/kg in test [1]; above 50 mg/kg in test [2]; above 50 mg/kg in test [3]; above 50 mg/kg in test [4]; 20 mg/kg in test [5]; 30 mg/kg in test [6]. Besides, the ED50 in test [7] amounted to 40 mg/kg.
In the case of `CN(C)Cc1nnc2n1-c1ccc(Cl)cc1/C(c1ccccc1)=N\CC2`, the ED50 in test [1] was above 50 mg/kg; in test [3], above 50 mg/kg; in test [4] it was above 50 mg/kg; in test [5] it was above 50 mg/kg; in test [8], above 100 mg/kg; in test [6], 15 mg/kg. Besides, in test [7], the ED50 is above 50 mg/kg.
On to `CN(C)CCCc1nnc2n1-c1ccc(Cl)cc1C(c1ccccc1Cl)=NC2`, for which the ED50 in test [1] is 25 mg/kg; in test [2], 2.2 mg/kg; in test [3], 2.2 mg/kg; in test [4], 2.6 mg/kg; in test [5], above 50 mg/kg; in test [6], 0.2 mg/kg. The ED50 in test [7] was 25 mg/kg.
In the case of `CN(C)CCc1nnc2cc(-c3ccccc3)c3cc(Cl)ccc3n12`, the ED50 is above 50 mg/kg in test [1]; above 50 mg/kg in test [3]; above 50 mg/kg in test [4]; above 50 mg/kg in test [5]; above 50 mg/kg in test [6]; 40 mg/kg in test [7].
In the case of `CN(C)Cc1nnc2n1-c1ccccc1C(c1ccccc1Cl)=NC2`, the ED50 was above 30 mg/kg in test [1]; 0.5 mg/kg in test [2]; 10 mg/kg in test [3]; 17.8 mg/kg in test [4]; above 30 mg/kg in test [5]; 0.13 mg/kg in test [8]. The ED50 in test [6] is above 10 mg/kg; in test [7], above 30 mg/kg.
Turning to `CSc1ccc2c(c1)C(c1ccccc1)=NCc1nnc(CN(C)C)n1-2`, the ED50 is 10 mg/kg in test [1]; above 50 mg/kg in test [2]; 9 mg/kg in test [3]; 10 mg/kg in test [4]; above 50 mg/kg in test [5]; 10 mg/kg in test [6]. Also, the ED50 in test [7] turned out to be 40 mg/kg.
Consider `CN(C)CCc1nnc2n1-c1ccc(Br)cc1C(c1ccccn1)=NC2`, for which the ED50 in test [1] was 4 mg/kg; in test [2] it was above 50 mg/kg; in test [3], 20 mg/kg; in test [4], above 50 mg/kg; in test [5] it was 9 mg/kg; in test [6], 10 mg/kg. The ED50 in test [7] was found to be 4 mg/kg.
Consider `CC(N)c1nnc2n1-c1ccccc1C(c1ccccc1Cl)=NC2` (centres undefined), for which the ED50 is above 50 mg/kg in test [1]; 0.2 mg/kg in test [2]; 0.2 mg/kg in test [3]; 0.4 mg/kg in test [4]; above 50 mg/kg in test [5]; 3 mg/kg in test [6]. The ED50 in test [7] is above 50 mg/kg.
In the case of `CC(N)Cc1nnc2n1-c1ccc(Br)cc1C(c1ccccn1)=NC2` (centres undefined), the ED50 in test [1] was above 50 mg/kg; in test [2], above 50 mg/kg; in test [3] it was above 50 mg/kg; in test [4] it was above 50 mg/kg; in test [5] it was 20 mg/kg; in test [6] it was 40 mg/kg. The ED50 in test [7] was found to be 7 mg/kg.
Take `CC(N)Cc1nnc2n1-c1ccccc1C(c1ccccc1)=NC2` (centres undefined): the ED50 in test [1], in test [2], in test [3], in test [4], in test [5] and in test [6] was above 50 mg/kg in each case. In addition, the ED50 in test [7] was found to be 40 mg/kg.
For `CN(C)CCc1nnc2n1-c1ccccc1C(c1ccccc1Cl)=NC2`, the ED50 was above 50 mg/kg in test [1]; 7 mg/kg in test [2]; 5 mg/kg in test [3]; above 50 mg/kg in test [4]; above 50 mg/kg in test [5]; above 50 mg/kg in test [6]. For the same compound, the 50% effective dose (ED50) in test [7] is 30 mg/kg.
Turning to `CN(C)OCc1nnc2n1-c1ccc(Cl)cc1C(c1ccccc1)=NC2`, the ED50 was above 50 mg/kg in test [1]; above 0.2 mg/kg in test [2]; 0.2 mg/kg in test [3]; 0.2 mg/kg in test [4]; above 50 mg/kg in test [5]; 0.1 mg/kg in test [6]. Moreover, the ED50 in test [7] was above 50 mg/kg.
On to `C[N+](C)([O-])Cc1nnc2n1-c1ccc(Cl)cc1C(c1ccccc1)=NC2`, for which the ED50 is 5.3 mg/kg in test [1]; 5.3 mg/kg in test [2]; 0.3 mg/kg in test [3]; 0.8 mg/kg in test [4]; above 50 mg/kg in test [5]; 0.6 mg/kg in test [6]. Moreover, the ED50 in test [7] was above 50 mg/kg.
As to `NCCc1nnc2n1-c1ccccc1C(c1ccccc1Cl)=NC2`, the ED50 was above 50 mg/kg in test [1]; 20 mg/kg in test [2]; above 50 mg/kg in test [3]; above 50 mg/kg in test [4]; above 50 mg/kg in test [5]; 20 mg/kg in test [6]. In addition, the ED50 in test [7] is above 50 mg/kg.
Turning to `CN(C)CCc1nnc2n1-c1ccc(Br)cc1C(c1ccccc1)=NC2`, the ED50 is 0.9 mg/kg in test [1]; 5 mg/kg in test [2]; 5 mg/kg in test [3]; 7 mg/kg in test [4]; above 50 mg/kg in test [5]; 5 mg/kg in test [6]. Also, the ED50 in test [7] is 3 mg/kg.
Take `NCCc1nnc2n1-c1ccc(Br)cc1C(c1ccccn1)=NC2`: the ED50 in test [1] was 30 mg/kg; in test [2], above 50 mg/kg; in test [3] it was above 50 mg/kg; in test [4] it was above 50 mg/kg; in test [5], above 50 mg/kg; in test [6] it was 30 mg/kg. In addition, the median effective dose (ED50) in test [7] turned out to be 30 mg/kg.
For the compound `CN(C)Cc1nnc2n1-c1ccc(Br)cc1C(c1ccccc1)=NC2`, the 50% effective dose (ED50) in test [1] was 7.4 mg/kg; in test [2], 0.8 mg/kg; in test [3], 0.7 mg/kg; in test [4], 0.8 mg/kg; in test [5], above 50 mg/kg; in test [6], 0.1 mg/kg. In test [7], the ED50 was found to be 35.4 mg/kg.
With `CC(N)Cc1nnc2n1-c1ccc(Cl)cc1C(c1ccccc1Cl)=NC2` (centres undefined), the ED50 in test [1] was 17.7 mg/kg; in test [2], 25 mg/kg; in test [3] it was 10.5 mg/kg; in test [4], 7.4 mg/kg; in test [5], above 50 mg/kg; in test [6], 3.7 mg/kg. Further, the ED50 in test [7] was above 50 mg/kg.
For `NCCc1nnc2n1-c1ccc(Br)cc1C(c1ccccc1)=NC2`, the 50% effective dose (ED50) in test [1] was 7 mg/kg; in test [2] it was above 50 mg/kg; in test [3], above 50 mg/kg; in test [4] it was 20 mg/kg; in test [5] it was above 50 mg/kg; in test [6], 30 mg/kg. The ED50 in test [7] came to 20 mg/kg.
